From patent US9193710B2, “Benzodiazepinones as modulators of metabotropic glutamate receptor functions and neurological uses thereof” (SANFORD-BURNHAM MEDICAL RESEARCH INSTITUTE, priority 2011, dated 2015)
“Also recorded” adds a separate entry of the source. Like-named read-outs stand apart in the source and are kept apart here.

Key:
Type in all cases: cell-based
[1] = test system: human neural stem cells (hNSCs); assay: Neuronal differentiation of human neural stem cells; parameters: key to Inhibition by LY-354740 / Inhibition by DCG-IV: I—Inhibition; conditions: for EC50: Homo sapiens, Neural stem cell; for Inhibition by LY-354740: inhibition of the compound-induced neurogenesis by the group II mGlu agonist LY-354740; for Inhibition by DCG-IV: inhibition of the compound-induced neurogenesis by the mGluR2/3 agonist DCG-IV
Experimental: FIG. 1 is a dose-response curve showing the effect of Compound 1 (8-bromo-4-(pyridazin-4-yl)-1H-benzo[b][1,4]diazepin-2(3H)-one) and DCG-IV, an mGluR2/3 agonist, alone and in combination on neuronal differentiation of cultured human neural stem cells (hNSCs). When run independently, each compound was tested in a concentration response curve ranging from 0.01 μM to 31.6 μM. Data are presented as the percentage of the neuronal positive control, with basal media values subtracted. […] In combination, the compounds were combined at equal concentrations at each point (for example, the first point in the combined curve consisted of a test of 0.01 μM Compound 1 and 0.01 μM DCG-IV).
Human neural stem cells (hNSCs) were isolated and grown in monolayer culture, plated, treated with varying concentrations of 8-bromo-4-(pyridazin-4-yl)-1H-benzo[b][1,4]diazepin-2(3H)-one (Compound 1), and stained with TUJ-1 antibody, as described in U.S. Patent Application Publication No. US2007/0015138. Mitogen-free test media with a positive control for neuronal differentiation was used along with basal media without growth factors as a negative control. […] The data are presented as a percent of neuronal positive control.
The same protocol used for exemplary Compound 1 (FIG. 1 and Example 55) was used to test these compounds. LY-354740 (eglumegad) is an agonist of the group II mGlu receptors.

mGluR3 = molecular target: T1, mGluR3 (Homo sapiens, UniProt Q14832); assay: Functional assay (FLIPR), mGluR3; conditions: class symbols: IC50 or inhibition at fixed concentration; CHO cells over-expressing mGluR3, calcium signal
T1 construct: expressed in transfected cells; transient Galpha16 co-transfection
Experimental: (§1) The compounds are further characterized through functional assays known in the art for studying potential mGluR agents. As a non-limiting example, the assay may be conducted as follows. Chinese hamster ovary (CHO) cells stably over-expressing either mGluR2 or mGluR3 are seeded into multiwell plates and transiently transfected overnight at 37° C. with a cDNA construct expressing G-protein coupled to intracellular calcium such as Gα16. The following day cells are washed with Hank's balanced salt solution containing calcium and magnesium. Cells are loaded for 1-2 hours with a calcium dye such as Fluo4 at 37° C.
The test compound may be added prior to or concurrent with the loading of the cells with Fluo4. Pre-incubation with compounds can vary from 5 minutes up 2 hours. Pre-incubation is done if the assay is testing for antagonists, positive allosteric modulators or negative allosteric modulators. No pre-incubation is done if the assay is testing for agonist activity. For testing antagonists or negative allosteric modulators an EC80 of the endogenous ligand, glutamate, is used. For testing positive allosteric modulators an EC20 of the endogenous ligand, glutamate, is used. Cells plates are loaded into a real-time fluorescence reader such as the FLIPR Tetra or the Flexstation 3. A base line is recorded for 15 seconds before cells are stimulated with either glutamate or other agonists. The real-time fluorescent signal is recorded for another 2 minutes. The peak of the fluorescent signal is determined. Data are either expressed as percent of the glutamate response in terms of a single determination or concentration curves are fitted with a four parameter logistic equation giving EC50 or IC50 values.

mGluR2 = molecular target: T2, mGluR2 (Homo sapiens, UniProt Q14416); assay: Functional assay (FLIPR), mGluR2; conditions: class symbols: IC50 or inhibition at fixed concentration; CHO cells over-expressing mGluR2, calcium signal
T2 construct: expressed in transfected cells; transient Galpha16 co-transfection
Experimental: as §1
The test compound may be added prior to or concurrent with the loading of the cells with Fluo4. Pre-incubation with compounds can vary from 5 minutes up 2 hours. […] Cells plates are loaded into a real-time fluorescence reader such as the FLIPR Tetra or the Flexstation 3. A base line is recorded for 15 seconds before cells are stimulated with either glutamate or other agonists. The real-time fluorescent signal is recorded for another 2 minutes. The peak of the fluorescent signal is determined. Data are either expressed as percent of the glutamate response in terms of a single determination or concentration curves are fitted with a four parameter logistic equation giving EC50 or IC50 values.

[2] = neuronal differentiation of hNSCs, TUJ-1 staining, read-out: Neurogenesis EC50

T1 sequence (Q14832 23-879): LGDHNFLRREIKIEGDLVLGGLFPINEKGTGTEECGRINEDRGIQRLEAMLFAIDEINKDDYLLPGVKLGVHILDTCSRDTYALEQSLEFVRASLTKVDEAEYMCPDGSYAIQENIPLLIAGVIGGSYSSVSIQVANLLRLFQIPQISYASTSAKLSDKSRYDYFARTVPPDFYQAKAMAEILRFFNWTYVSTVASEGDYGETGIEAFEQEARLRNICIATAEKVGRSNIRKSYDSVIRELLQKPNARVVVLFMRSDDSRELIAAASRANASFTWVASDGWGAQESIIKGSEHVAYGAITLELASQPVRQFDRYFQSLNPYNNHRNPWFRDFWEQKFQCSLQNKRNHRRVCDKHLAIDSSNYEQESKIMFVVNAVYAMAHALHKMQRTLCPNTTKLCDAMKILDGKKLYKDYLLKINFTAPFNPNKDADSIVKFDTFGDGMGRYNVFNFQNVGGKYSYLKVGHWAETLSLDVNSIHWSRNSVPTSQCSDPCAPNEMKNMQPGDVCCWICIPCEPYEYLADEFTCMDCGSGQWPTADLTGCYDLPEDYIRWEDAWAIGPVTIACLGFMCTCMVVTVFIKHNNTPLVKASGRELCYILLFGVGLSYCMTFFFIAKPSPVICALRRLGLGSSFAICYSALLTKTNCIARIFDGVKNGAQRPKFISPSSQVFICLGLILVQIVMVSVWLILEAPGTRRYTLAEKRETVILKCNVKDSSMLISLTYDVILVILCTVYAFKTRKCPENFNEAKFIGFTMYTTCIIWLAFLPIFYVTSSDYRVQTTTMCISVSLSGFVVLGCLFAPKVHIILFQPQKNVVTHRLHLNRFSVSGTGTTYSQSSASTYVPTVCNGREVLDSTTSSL
T2 sequence (Q14416 19-872): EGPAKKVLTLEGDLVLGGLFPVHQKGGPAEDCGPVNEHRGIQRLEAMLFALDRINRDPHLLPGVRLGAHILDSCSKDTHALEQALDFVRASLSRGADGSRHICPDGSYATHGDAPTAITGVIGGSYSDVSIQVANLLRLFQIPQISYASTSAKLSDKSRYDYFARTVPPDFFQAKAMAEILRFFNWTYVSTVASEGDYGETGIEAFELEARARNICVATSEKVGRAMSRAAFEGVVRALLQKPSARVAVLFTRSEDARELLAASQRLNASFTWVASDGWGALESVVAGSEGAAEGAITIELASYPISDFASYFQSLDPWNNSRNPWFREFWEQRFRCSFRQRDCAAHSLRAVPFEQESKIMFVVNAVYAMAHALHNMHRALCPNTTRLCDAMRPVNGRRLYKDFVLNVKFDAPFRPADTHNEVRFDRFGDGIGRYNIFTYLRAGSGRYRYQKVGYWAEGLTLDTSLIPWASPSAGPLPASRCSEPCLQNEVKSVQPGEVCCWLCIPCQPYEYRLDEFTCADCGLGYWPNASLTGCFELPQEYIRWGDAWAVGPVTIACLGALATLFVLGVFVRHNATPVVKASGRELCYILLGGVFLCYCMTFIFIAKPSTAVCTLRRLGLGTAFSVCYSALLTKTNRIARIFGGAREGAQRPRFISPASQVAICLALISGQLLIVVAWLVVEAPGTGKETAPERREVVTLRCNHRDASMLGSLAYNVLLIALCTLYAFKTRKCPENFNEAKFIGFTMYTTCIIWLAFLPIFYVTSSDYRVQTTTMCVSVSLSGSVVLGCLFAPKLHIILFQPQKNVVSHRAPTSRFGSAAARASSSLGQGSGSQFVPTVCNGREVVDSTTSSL

## O=C1CC(c2ccc(Cl)nn2)=Nc2ccc(Br)cc2N1 [Compound 10]
[1]; [2]
  EC50: 1 to 5 µM

## O=C1CC(c2ccnnc2)=Nc2ccc(I)cc2N1 [Compound 3, 8-iodo-4-(pyridazin-4-yl)-1H-benzo[b][1,4]diazepin-2(3H)-one]
[1]; [2]
  EC50: 1 to 5 µM
[1]
  Inhibition by LY-354740: I

## N[C@H](C(=O)O)C1[C@@H](C(=O)O)[C@@H]1C(=O)O (some centres unmarked) [DCG-IV, reference compound]
[1]; FIG. 1, 0.01 μM to 31.6 μM
  effect on neuronal differentiation (neurogenesis), tested alone: no effect; also recorded: did not induce neurogenesis

## COc1ccc(-c2ccc3c(c2)NC(=O)CC(c2ccnnc2)=N3)cc1OC [Compound 17, 8-(3,4-Dimethoxyphenyl)-4-(pyridazin-4-yl)-1H-benzo[b][1,4]diazepin-2(3H)-one]
[1]; [2]
  EC50: > 5 µM

## O=C1CC(c2ccnnc2)=Nc2ccc(C(F)(F)F)cc2N1 [Compound 2, 8-trifluoromethyl-4-(pyridazin-4-yl)-1H-benzo[b][1,4]diazepin-2(3H)-one]
[1]; [2]
  EC50: 1 to 5 µM
[1]
  Inhibition by LY-354740: I

## O=C1CC(c2ccnnc2)=Nc2ccc(-c3cccs3)cc2N1 [Compound 15, 8-(Thiophen-2-yl)-4-(pyridazin-4-yl)-1H-benzo[b][1,4]diazepin-2(3H)-one]
[1]; [2]
  EC50: 1 to 5 µM
[1]
  Inhibition by LY-354740: I
  Inhibition by DCG-IV: I

## O=C1CC(c2ccc3[nH]c(=O)sc3c2)=Nc2ccc(C#Cc3ccccc3F)cc2N1 [Compound 36, 6-(8-((2-fluorophenyl)ethynyl)-2-oxo-2,3-dihydro-1H-benzo[b][1,4]diazepin-4-yl)benzo[d]thiazol-2(3H)-one]
mGluR3
  mGluR3 FLIPR: C (C=inhibition at 101.1M<50%)

## O=C1CC(c2ccnnc2)=Nc2ccc(F)cc2N1 [Compound 6, 8-fluoro-4-(pyridazin-4-yl)-1H-benzo[b][1,4]diazepin-2(3H)-one]
[1]; [2]
  EC50: 1 to 5 µM

## O=C1CC(c2ccnnc2)=Nc2ccc(-c3ccccc3F)cc2N1 [Compound 16, 8-(2-Fluorophenyl)-4-(pyridazin-4-yl)-1H-benzo[b][1,4]diazepin-2(3H)-one]
[1]; [2]
  EC50: > 5 µM

## O=C1CC(c2cccc(Br)c2)=Nc2ccc(NC(=O)OCc3ccccc3)cc2N1 [Compound 82, benzyl(4-(3-bromophenyl)-2-oxo-2,3-dihydro-1H-benzo[b][1,4]diazepin-8-yl)carbamate]
mGluR2
  mGluR2 FLIPR: A (A=IC50<1 μM)

## O=C1CC(c2cncnc2)=Nc2ccc(Br)cc2N1 [Compound 7, 8-Bromo-4-(pyrimidin-3-yl)-1H-benzo[b][1,4]diazepin-2(3H)-one]
[1]; [2]
  EC50: > 5 µM

## O=C1CC(c2ccnnc2)=Nc2ccc(Br)cc2N1 [Compound 1, 8-bromo-4-(pyridazin-4-yl)-1H-benzo[b][1,4]diazepin-2(3H)-one]
[1]; FIG. 1, 0.01 μM to 31.6 μM
  effect on neuronal differentiation (neurogenesis), tested alone: promoted neuronal differentiation in a concentration dependent manner
[1]; FIG. 1, Compound 1 and DCG-IV at equal concentrations (1:1 ratio) at each point
  neurogenesis in combination with DCG-IV: no noted neurogenesis; also recorded: did not induce neurogenesis
[1]; FIG. 1, 0.01 μM to 31.6 μM, percentage of neuronal positive control, basal media subtracted, read-out: EC50, neuronal differentiation dose-response curve
  EC50: 2.53 µM
[1]; [2]
  EC50: 1 to 5 µM
[1]
  Inhibition by DCG-IV: I

## O=C1CC(c2cnccn2)=Nc2ccc(Br)cc2N1 [Compound 8, 8-Bromo-4-(pyrazin-2-yl)-1H-benzo[b][1,4]diazepin-2(3H)-one]
[1]; [2]
  EC50: > 5 µM

## COC(=O)c1ccc2c(c1)NC(=O)CC(c1ccnnc1)=N2 [Compound 4, Methyl 2-oxo-4-(pyridazin-4-yl)-2,3-dihydro-1H-benzo[b][1,4]diazepine-8-carboxylate]
[1]; [2]
  EC50: 1 to 5 µM

## O=C1CC(c2ccc(O)nn2)=Nc2ccc(Br)cc2N1 [Compound 33, 8-Bromo-4-(6-hydroxypyridazin-3-yl)-1H-benzo[b][1,4]diazepin-2(3H)-one]
mGluR3
  mGluR3 FLIPR: B (B=inhibition at 101.1M>50%)

## O=C1CC(c2ccc3[nH]c(=O)sc3c2)=Nc2ccc(Br)cc2N1 [Compound 35, 6-(8-bromo-2-oxo-2,3-dihydro-1H-benzo[b][1,4]diazepin-4-yl)benzo[d]thiazol-2(3H)-one]
mGluR3
  mGluR3 FLIPR: C (C=inhibition at 101.1M<50%)

## O=C1CC(c2ccnnc2)=Nc2ccc(Cl)cc2N1 [Compound 5, 8-chloro-4-(pyridazin-4-yl)-1H-benzo[b][1,4]diazepin-2(3H)-one]
[1]; [2]
  EC50: < 1 µM

## Cc1ccc(C2=Nc3ccc(Br)cc3NC(=O)C2)nn1 [Compound 9]
[1]; [2]
  EC50: 1 to 5 µM

## O=C1CC(c2ccnnc2)=Nc2ccc(C(=O)O)cc2N1 [Compound 12, 2-oxo-4-(pyridazin-4-yl)-2,3-dihydro-1H-benzo[b][1,4]diazepine-8-carboxylic acid]
[1]; [2]
  EC50: < 1 µM
[1]
  Inhibition by LY-354740: I

## Cc1cc2c(cc1C)NC(=O)CC(c1ccnnc1)=N2 [Compound 13, 7,8-Dimethyl-4-(pyridazin-4-yl)-1H-benzo[b][1,4]diazepin-2(3H)-one]
[1]; [2]
  EC50: > 5 µM
